Results from US20060069132A1, “Azolecarboxamide herbicides” (priority 2004, published 2006).

Tests used:
bermudagrass = assay: Test C pre-/postemergence herbicide test; format: in vivo, Cynodon dactylon; details: preemergence; for Plant response rating (0 = no effect, 100 = complete control), Bermudagrass: 125 g ai/ha
Outline: (§1)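 Seeds were planted and sprayed preemergence with test chemicals in a non-phytotoxic solvent mixture containing surfactant; postemergence treatments went onto plants 2 to 18 cm tall (1- to 4-leaf stage). After 12 to 14 days in a greenhouse, injury was rated visually against untreated controls on a 0–100 scale.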

giant foxtail = assay: Test C pre-/postemergence herbicide test; format: in vivo, Setaria faberi; details: preemergence; for Plant response rating (0 = no effect, 100 = complete control), Foxtail, Giant: 125 g ai/ha
Outline: as §1

soybean = assay: Test C pre-/postemergence herbicide test; format: in vivo, Glycine max; details: preemergence; for Plant response rating (0 = no effect, 100 = complete control), Soybean: 125 g ai/ha
Outline: as §1

[1] = test system: smallflower umbrella sedge; assay: Test C flooded paddy test; format: in vivo, Cyperus difformis; details: for Plant response rating, Sedge, Umbrella: 500 g ai/ha, visual rating after 12 to 14 days
[2] = test system: common (oilseed) sunflower; assay: Test C pre-/postemergence herbicide test; format: in vivo, Helianthus annuus; details: preemergence; for Plant response rating (0 = no effect, 100 = complete control), Sunflower: 125 g ai/ha
Outline: as §1

goosegrass = assay: Test C pre-/postemergence herbicide test; format: in vivo, Eleusine indica; details: preemergence; for Plant response rating (0 = no effect, 100 = complete control), Goosegrass: 125 g ai/ha
Outline: as §1

morningglory = assay: Test C pre-/postemergence herbicide test; format: in vivo, Ipomoea coccinea; set-up: key to Plant response rating, Morningglory: 0 = no effect, 100 = complete control; details: preemergence; for Plant response rating (0 = no effect, 100 = complete control), Morningglory: 125 g ai/ha
Outline: as §1

kochia = assay: Test C pre-/postemergence herbicide test; format: in vivo, Kochia scoparia; details: preemergence; for Plant response rating (0 = no effect, 100 = complete control), Kochia: 125 g ai/ha
Outline: as §1

[3] = 62 g ai/ha, scale 0 to 100, 0 no effect, 100 complete control
[4] = 500 g ai/ha, scale 0 to 100 (0 no effect, 100 complete control), visual, 12 to 14 days
[5] = 125 g ai/ha, scale 0 to 100 (0 no effect, 100 complete control)
[6] = 250 g ai/ha, scale of 0 to 100, 0 is no effect, 100 is complete control
[7] = scale 0 to 100 (0 no effect, 100 complete control)

| SMILES | Plant response rating, Bermudagrass (bermudagrass; [3]) | Plant response rating (0 = no effect, 100 = complete control), Bermudagrass (bermudagrass) | Plant response rating, Bermudagrass (bermudagrass; 250 g ai/ha, scale 0-100) | Plant response rating, Bermudagrass (bermudagrass; [4]) | Plant response rating, Foxtail, Giant (giant foxtail; 62 g ai/ha, scale 0 to 100) | Plant response rating (0 = no effect, 100 = complete control), Foxtail, Giant (giant foxtail) | Plant response rating, Foxtail, Giant (giant foxtail; 250 g ai/ha, scale 0-100) | Plant response rating, Foxtail, Giant (giant foxtail; [4]) | Plant response rating, Soybean (soybean; 62 g ai/ha, scale 0 to 100) | Plant response rating (0 = no effect, 100 = complete control), Soybean (soybean) | Plant response rating, Soybean (soybean; 250 g ai/ha, scale 0-100) | Plant response rating, Soybean (soybean; [4]) | Sedge, Umbrella plant response rating ([1]; 62 g ai/ha, scale 0 to 100) | Sedge, Umbrella plant response rating [1, 5] | Sedge, Umbrella plant response rating [1, 6] | Plant response rating, Sedge, Umbrella [1, 7] | Plant response rating, Sunflower ([2]; 62 g ai/ha, scale 0 to 100) | Plant response rating (0 = no effect, 100 = complete control), Sunflower [2] | Plant response rating, Sunflower ([2]; 250 g ai/ha, scale 0-100) | Plant response rating, Sunflower [2, 4] | other results |
| --- | --- | --- | --- | --- | --- | --- | --- | --- | --- | --- | --- | --- | --- | --- | --- | --- | --- | --- | --- | --- | --- |
| CCC1=NN(C(C)(C)C)CC1C(=O)Nc1cc(C(=O)N2CCCC2)ccc1F (racemic) [Compound 341] | 80 | 80 | 100 | 100 | 0 | 50 | 55 | 80 | 0 | 20 | 70 | 100 | 20 | 50 | 60 | 60 | 0 | 0 | 50 | 100 | Plant response rating, Goosegrass (goosegrass; 62 g ai/ha, scale 0 to 100): 70; Plant response rating (0 = no effect, 100 = complete control), Goosegrass (goosegrass): 85; Plant response rating, Goosegrass (goosegrass; 250 g ai/ha, scale 0-100): 85; Plant response rating, Goosegrass (goosegrass; [4]): 90; Plant response rating, Morningglory (morningglory; 62 g ai/ha, scale 0 to 100): 0; Plant response rating (0 = no effect, 100 = complete control), Morningglory (morningglory): 5; Plant response rating, Morningglory (morningglory; 250 g ai/ha, scale 0-100): 5; Plant response rating, Morningglory (morningglory; [4]): 50; Plant response rating, Kochia (kochia; 62 g ai/ha, scale 0 to 100): 80; Plant response rating (0 = no effect, 100 = complete control), Kochia (kochia): 100; Plant response rating, Kochia (kochia; 250 g ai/ha, scale 0-100): 100; Plant response rating, Kochia (kochia; [4]): 100 |
| CCc1nn(C(C)(C)CC)nc1C(=O)Nc1cccc(C(=O)N(C)C)c1 [Compound 372] | 75 | 98 | 98 | 100 | 70 | 85 | 90 | 90 | 0 | 5 | 20 | 90 | 80 | 85 | 85 | 85 | 0 | 0 | 0 | 60 | Plant response rating, Goosegrass (goosegrass; 62 g ai/ha, scale 0 to 100): 70; Plant response rating (0 = no effect, 100 = complete control), Goosegrass (goosegrass): 80; Plant response rating, Goosegrass (goosegrass; 250 g ai/ha, scale 0-100): 90; Plant response rating, Goosegrass (goosegrass; [4]): 90; Plant response rating, Morningglory (morningglory; 62 g ai/ha, scale 0 to 100): 0; Plant response rating (0 = no effect, 100 = complete control), Morningglory (morningglory): 5; Plant response rating, Morningglory (morningglory; 250 g ai/ha, scale 0-100): 40; Plant response rating, Morningglory (morningglory; [4]): 80; Plant response rating, Kochia (kochia; 62 g ai/ha, scale 0 to 100): 100; Plant response rating (0 = no effect, 100 = complete control), Kochia (kochia): 100; Plant response rating, Kochia (kochia; 250 g ai/ha, scale 0-100): 100; Plant response rating, Kochia (kochia; [4]): 100 |
